In EP1976513B1 (priority 2006, dated 2007):
Like-named read-outs stand apart in the source and are kept apart here.

Legend:
mice [1] = assay: Mouse tail suspension test; assay type: in vivo; conditions: PO, 30-60 minutes before the test, 5 minutes recording
mice [2] = assay: Mouse locomotor activity; assay type: in vivo; conditions: PO
Experimental: In order to ensure effects of the compounds on immobility time were not related to a general stimulant effect on baseline motor activity, locomotor activity was assessed using photocell monitored cages (Med-Associates Inc.). Each test chamber was equipped with infrared photocell beams to measure movement of the animals. Horizontal and vertical activity were measured
Rats or mice were pretreated with vehicle or test compounds and placed back in home cage, following which they will be individually placed in locomotor cages and activity was monitored in 5 minute intervals for up to 60 min.
Data were analyzed by one way analysis of variance (ANOVA) followed by post-hoc comparisons where appropriate. An effect was considered significant if p < 0.05. Data are represented as the mean and standard error to the mean (s.e.m).

[3] = molecular target: human serotonin reuptake transporter (Homo sapiens, UniProt P31645); assay: cell-based
[4] = molecular target: Norepinephrine Transporter (NET) Sites in Mouse Brain (Mus musculus, UniProt O55192); conditions: PO; for % Transporter Occupancy, NET: 60 minutes after treatment, vs vehicle; for Mean Specific Binding (dpm) ± S.E.M., NET: mice sacrificed 60 minutes after treatment, cortex
[5] = molecular target: T1, 5-HT Transporter (SERT) Sites in Mouse Brain (Mus musculus, UniProt Q60857); assay: Ex vivo [3H] citalopram binding after oral dosing; set-up: species or system C57BL/6 mice; conditions: for % Transporter Occupancy, SERT: 60 minutes after treatment, vs vehicle; for Mean Specific Binding (dpm) ± S.E.M., SERT: mice sacrificed 60 minutes after treatment, cortex
T1 construct: Whole brains were removed and cortex and striata dissected out; from tissue; host or cells: C57BL/6 mouse frontal cortex homogenate

[6] = molecular target: T2, DA Transporter (DAT) Sites in Mouse Brain (Mus musculus, UniProt Q61327); assay: Ex vivo [3H] WIN 35428 binding after oral dosing; set-up: species or system C57BL/6 mice; conditions: for % Transporter Occupancy, DAT: 60 minutes after treatment, vs vehicle; for Mean Specific Binding (dpm) ± S.E.M., DAT: mice sacrificed 60 minutes after treatment, striatum
T2 construct: Striatum was used to determine occupancy of DA transporter sites; from tissue; host or cells: C57BL/6 mouse striatum homogenate

[7] = molecular target: T3, human dopamine reuptake transporter (Homo sapiens, UniProt Q01959); assay: cell-based
T3 construct: expressed in transfected cells; host or cells: CHO-K1 or HEK293

[8] = recombinant human serotonin transporter (SERT), read-out: Human IC50 (nM) hSERT
[9] = recombinant human dopamine transporter (DAT), read-out: Human IC50 (nM) hDAT
[10] = Human IC50 (nM) hSERT, recombinant human serotonin transporter (SERT)

T3 sequence (Q01959 whole entry): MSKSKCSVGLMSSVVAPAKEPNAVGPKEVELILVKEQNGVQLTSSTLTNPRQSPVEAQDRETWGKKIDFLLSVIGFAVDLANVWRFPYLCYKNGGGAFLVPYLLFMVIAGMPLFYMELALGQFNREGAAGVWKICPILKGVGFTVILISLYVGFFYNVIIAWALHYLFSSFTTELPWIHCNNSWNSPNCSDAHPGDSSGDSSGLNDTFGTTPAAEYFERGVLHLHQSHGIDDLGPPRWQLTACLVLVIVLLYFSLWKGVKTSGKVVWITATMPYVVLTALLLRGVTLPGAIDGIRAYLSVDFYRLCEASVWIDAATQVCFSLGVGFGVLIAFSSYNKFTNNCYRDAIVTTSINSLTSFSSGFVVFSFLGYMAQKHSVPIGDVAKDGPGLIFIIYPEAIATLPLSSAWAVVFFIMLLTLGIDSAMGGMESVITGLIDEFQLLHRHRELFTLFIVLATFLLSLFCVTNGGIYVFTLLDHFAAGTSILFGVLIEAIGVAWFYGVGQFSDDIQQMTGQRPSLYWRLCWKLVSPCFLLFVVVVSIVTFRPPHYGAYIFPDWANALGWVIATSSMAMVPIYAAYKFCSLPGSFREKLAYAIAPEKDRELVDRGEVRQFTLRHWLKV
T2 sequence (Q61327 whole entry): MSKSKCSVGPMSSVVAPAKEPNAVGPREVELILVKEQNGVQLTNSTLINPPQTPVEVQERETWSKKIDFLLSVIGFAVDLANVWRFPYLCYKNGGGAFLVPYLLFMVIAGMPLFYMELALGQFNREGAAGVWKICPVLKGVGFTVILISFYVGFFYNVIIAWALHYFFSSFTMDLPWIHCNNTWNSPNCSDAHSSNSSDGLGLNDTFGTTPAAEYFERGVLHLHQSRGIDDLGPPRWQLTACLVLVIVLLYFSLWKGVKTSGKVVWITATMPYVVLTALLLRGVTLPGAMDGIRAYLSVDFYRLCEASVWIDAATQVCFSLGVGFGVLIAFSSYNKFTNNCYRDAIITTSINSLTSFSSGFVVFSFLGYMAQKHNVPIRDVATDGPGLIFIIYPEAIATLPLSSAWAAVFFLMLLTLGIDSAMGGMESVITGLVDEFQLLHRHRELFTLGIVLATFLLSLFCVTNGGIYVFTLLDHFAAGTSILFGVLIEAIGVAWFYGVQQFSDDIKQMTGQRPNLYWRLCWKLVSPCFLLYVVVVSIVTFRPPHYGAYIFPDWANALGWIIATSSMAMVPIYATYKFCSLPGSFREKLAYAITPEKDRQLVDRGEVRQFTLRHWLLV
T1 sequence (Q60857 whole entry): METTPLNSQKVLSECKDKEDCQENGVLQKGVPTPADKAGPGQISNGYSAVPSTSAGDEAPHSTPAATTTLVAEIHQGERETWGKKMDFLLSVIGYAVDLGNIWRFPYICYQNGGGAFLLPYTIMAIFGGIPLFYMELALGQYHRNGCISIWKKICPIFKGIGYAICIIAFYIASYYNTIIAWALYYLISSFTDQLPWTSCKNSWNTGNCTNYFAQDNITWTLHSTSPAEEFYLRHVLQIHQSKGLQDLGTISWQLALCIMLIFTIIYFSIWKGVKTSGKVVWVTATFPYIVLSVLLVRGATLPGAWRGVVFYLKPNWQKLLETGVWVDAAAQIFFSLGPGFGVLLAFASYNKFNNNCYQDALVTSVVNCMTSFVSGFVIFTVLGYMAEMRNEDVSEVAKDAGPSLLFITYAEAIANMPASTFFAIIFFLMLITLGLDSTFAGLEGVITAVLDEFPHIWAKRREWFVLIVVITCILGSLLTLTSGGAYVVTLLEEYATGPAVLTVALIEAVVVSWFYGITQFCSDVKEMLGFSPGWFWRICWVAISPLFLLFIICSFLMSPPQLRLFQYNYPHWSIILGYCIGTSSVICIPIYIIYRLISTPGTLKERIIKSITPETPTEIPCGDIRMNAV
Sequence of Norepinephrine Transporter (NET) Sites in Mouse Brain (O55192 whole entry): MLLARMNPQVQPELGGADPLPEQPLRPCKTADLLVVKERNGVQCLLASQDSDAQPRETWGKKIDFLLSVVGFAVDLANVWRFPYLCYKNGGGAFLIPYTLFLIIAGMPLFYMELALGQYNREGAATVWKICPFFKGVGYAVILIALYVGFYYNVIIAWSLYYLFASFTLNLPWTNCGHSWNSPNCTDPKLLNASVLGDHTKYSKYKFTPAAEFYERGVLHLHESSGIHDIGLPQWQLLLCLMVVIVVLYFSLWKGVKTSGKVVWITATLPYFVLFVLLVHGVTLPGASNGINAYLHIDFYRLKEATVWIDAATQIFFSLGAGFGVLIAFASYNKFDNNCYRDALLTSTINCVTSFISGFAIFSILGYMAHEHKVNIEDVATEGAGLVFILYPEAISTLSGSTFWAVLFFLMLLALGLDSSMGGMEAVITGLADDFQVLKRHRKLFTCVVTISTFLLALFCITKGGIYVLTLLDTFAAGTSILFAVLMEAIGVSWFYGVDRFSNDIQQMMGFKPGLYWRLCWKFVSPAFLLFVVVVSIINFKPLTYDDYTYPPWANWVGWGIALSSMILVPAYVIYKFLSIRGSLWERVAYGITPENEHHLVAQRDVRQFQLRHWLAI
Sequence of human serotonin reuptake transporter (P31645 whole entry): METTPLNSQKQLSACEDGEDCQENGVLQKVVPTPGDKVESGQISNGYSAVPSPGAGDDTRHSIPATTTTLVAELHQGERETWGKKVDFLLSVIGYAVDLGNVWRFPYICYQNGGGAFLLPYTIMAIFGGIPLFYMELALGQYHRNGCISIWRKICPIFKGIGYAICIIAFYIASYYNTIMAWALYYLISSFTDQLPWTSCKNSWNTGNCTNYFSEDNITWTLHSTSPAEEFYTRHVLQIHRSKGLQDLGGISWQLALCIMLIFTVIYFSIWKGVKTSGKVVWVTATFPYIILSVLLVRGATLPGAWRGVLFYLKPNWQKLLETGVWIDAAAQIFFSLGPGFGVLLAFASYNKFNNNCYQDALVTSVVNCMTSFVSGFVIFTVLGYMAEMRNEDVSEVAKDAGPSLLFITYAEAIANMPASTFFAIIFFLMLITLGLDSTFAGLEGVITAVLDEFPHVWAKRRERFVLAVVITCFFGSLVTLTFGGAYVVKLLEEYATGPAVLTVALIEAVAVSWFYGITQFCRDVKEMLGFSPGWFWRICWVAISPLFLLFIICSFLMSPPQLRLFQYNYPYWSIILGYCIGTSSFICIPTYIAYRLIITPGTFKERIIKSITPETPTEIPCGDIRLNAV

## CN(C)CC1(c2ccc3ccccc3c2)CCCCC1O (single isomer, unassigned) [164 E2, trans-2-((dimethylamino)methyl)-2-(naphthalen-2-yl)cyclohexanol]
Mice [1]; 3 mg/kg
  Mouse Tail Suspension Mean Immobility Time ± S.E.M.: 181.8 ± 6.3
Mice [1]; 10 mg/kg
  Mouse Tail Suspension Mean Immobility Time ± S.E.M.: 179.1 ± 4.5
Mice [1]; 30 mg/kg
  Mouse Tail Suspension Mean Immobility Time ± S.E.M.: 141.8 ± 6.0
Mice [2]; 3 mg/kg
  Mouse Locomotor Activity Total Distance Traveled ± S.E.M.: 518.2 ± 106.1
Mice [2]; 10 mg/kg
  Mouse Locomotor Activity Total Distance Traveled ± S.E.M.: 464.5 ± 86.2
Mice [2]; 30 mg/kg
  Mouse Locomotor Activity Total Distance Traveled ± S.E.M.: 669.9 ± 75.6

## CN(C)CC1(c2ccc3ccccc3c2)CCCCC1O (single isomer, unassigned) [164 E1, trans-2-((dimethylamino)methyl)-2-(naphthalen-2-yl)cyclohexanol]
Mice [1]; 3 mg/kg
  Mouse Tail Suspension Mean Immobility Time ± S.E.M.: 183.8 ± 6.5
Mice [1]; 10 mg/kg
  Mouse Tail Suspension Mean Immobility Time ± S.E.M.: 162.1 ± 4.6
Mice [1]; 30 mg/kg
  Mouse Tail Suspension Mean Immobility Time ± S.E.M.: 155.3 ± 7.8
Mice [2]; 3 mg/kg
  Mouse Locomotor Activity Total Distance Traveled ± S.E.M.: 377.8 ± 67.6
Mice [2]; 10 mg/kg
  Mouse Locomotor Activity Total Distance Traveled ± S.E.M.: 210.3 ± 40.4
Mice [2]; 30 mg/kg
  Mouse Locomotor Activity Total Distance Traveled ± S.E.M.: 494.0 ± 84.9

## CCC(N)C1(c2ccc(Cl)c(Cl)c2)CCCCC1 (single isomer, unassigned) [17 E1, 1-(1-(3,4-dichlorophenyl)cyclohexyl)propan-1-amine]
Mice [1]; 3 mg/kg
  Mouse Tail Suspension Mean Immobility Time ± S.E.M.: 184.7 ± 9.0
Mice [1]; 10 mg/kg
  Mouse Tail Suspension Mean Immobility Time ± S.E.M.: 182.6 ± 4.1
Mice [1]; 30 mg/kg
  Mouse Tail Suspension Mean Immobility Time ± S.E.M.: 150.9 ± 7.8
Mice [2]; 3 mg/kg
  Mouse Locomotor Activity Total Distance Traveled ± S.E.M.: 649.3 ± 78.4
Mice [2]; 10 mg/kg
  Mouse Locomotor Activity Total Distance Traveled ± S.E.M.: 478.3 ± 88.5
Mice [2]; 30 mg/kg
  Mouse Locomotor Activity Total Distance Traveled ± S.E.M.: 428.3 ± 120.6

## CNCC1(c2ccc(Cl)c(Cl)c2)CCC(C)(O)CC1 (stereo not drawn) [Compound 276, 4-(3,4-dichlorophenyl)-1-methyl-4-((methylamino)methyl)cyclohexanol]
[3]; [8]
  IC50: 210 nM
[4]; 1 mg/kg
  % Transporter Occupancy, NET: -4%
  Mean Specific Binding (dpm) ± S.E.M., NET: 1602 ± 51 dpm
[4]; 3 mg/kg
  % Transporter Occupancy, NET: -6%
  Mean Specific Binding (dpm) ± S.E.M., NET: 1631 ± 92 dpm
[4]; 10 mg/kg
  % Transporter Occupancy, NET: -1%
  Mean Specific Binding (dpm) ± S.E.M., NET: 1553 ± 27 dpm
[4]; 30 mg/kg
  % Transporter Occupancy, NET: 26%
  Mean Specific Binding (dpm) ± S.E.M., NET: 1138 ± 59 dpm
[5]; 1 mg/kg
  % Transporter Occupancy, SERT: 12%
  Mean Specific Binding (dpm) ± S.E.M., SERT: 3743 ± 199 dpm
[5]; 3 mg/kg
  % Transporter Occupancy, SERT: 14%
  Mean Specific Binding (dpm) ± S.E.M., SERT: 3685 ± 292 dpm
[5]; 10 mg/kg
  % Transporter Occupancy, SERT: 28%
  Mean Specific Binding (dpm) ± S.E.M., SERT: 3092 ± 207 dpm
[5]; 30 mg/kg
  % Transporter Occupancy, SERT: 64%
  Mean Specific Binding (dpm) ± S.E.M., SERT: 1558 ± 169 dpm
Mice [2]; 3 mg/kg
  Mouse Locomotor Activity Total Distance Traveled ± S.E.M.: 625.9 ± 47.5
Mice [2]; 10 mg/kg
  Mouse Locomotor Activity Total Distance Traveled ± S.E.M.: 382.4 ± 63.4
Mice [2]; 30 mg/kg
  Mouse Locomotor Activity Total Distance Traveled ± S.E.M.: 607.8 ± 57.8
[6]; 1 mg/kg
  % Transporter Occupancy, DAT: -21%
[6]; 3 mg/kg
  % Transporter Occupancy, DAT: -9%
  Mean Specific Binding (dpm) ± S.E.M., DAT: 16312 ± 2396 dpm
[6]; 10 mg/kg
  % Transporter Occupancy, DAT: -6%
  Mean Specific Binding (dpm) ± S.E.M., DAT: 15879 ± 2265 dpm
[6]; 30 mg/kg
  % Transporter Occupancy, DAT: 31%
  Mean Specific Binding (dpm) ± S.E.M., DAT: 10397 ± 931 dpm

## CNC(C)C1(c2ccc(Cl)c(Cl)c2)CCCCC1 (single isomer, unassigned) [44 E1, 1-(1-(3,4-dichlorophenyl)cyclohexyl)-N-methylethanamine]
Mice [1]; 3 mg/kg
  Mouse Tail Suspension Mean Immobility Time ± S.E.M.: 188.9 ± 7.3
Mice [1]; 10 mg/kg
  Mouse Tail Suspension Mean Immobility Time ± S.E.M.: 174.5 ± 8.1
Mice [1]; 30 mg/kg
  Mouse Tail Suspension Mean Immobility Time ± S.E.M.: 120.4 ± 9.0
Mice [2]; 3 mg/kg
  Mouse Locomotor Activity Total Distance Traveled ± S.E.M.: 576.5 ± 66.9
Mice [2]; 10 mg/kg
  Mouse Locomotor Activity Total Distance Traveled ± S.E.M.: 721.1 ± 36.5
Mice [2]; 30 mg/kg
  Mouse Locomotor Activity Total Distance Traveled ± S.E.M.: 402.3 ± 71.0

## NCC1(c2ccc3ccccc3c2)CCC(Cl)CC1 (stereo not drawn) [Compound 211, (4-chloro-1-(naphthalen-2-yl)cyclohexyl)methanamine]
[7]; [9]
  IC50: 195 nM
[3]; [8]
  IC50: 55 nM

## NCC1(c2ccc(C(F)(F)F)cc2)CCCCC1 [Compound 34, (1-(4-(trifluoromethyl)phenyl)-cyclohexyl)methanamine]
[7]; [9]
  IC50: 5320 nM
[3]; [10]
  IC50: > 10000 nM

## NCC1(c2ccc(Cl)c(Cl)c2)CCC(Oc2ccccc2)CC1 (stereo not drawn) [Compound 265, (1-(3,4-dichlorophenyl)-4-phenoxycyclohexyl)methanamine]
[7]; [9]
  IC50: 1450 nM
[3]; [8]
  IC50: 109 nM

## CN(C)CC1(c2ccc(Cl)cc2Cl)CCCCC1 [Compound 66, 1-(1-(2,4-dichlorophenyl)cyclohexyl)-N,N-dimethylmethanamine]
[7]; [9]
  IC50: 355 nM
[3]; [10]
  IC50: 221 nM

## CN(C)CC1(c2ccc3c(c2)OCO3)CCC(O)CC1 (stereo not drawn) [Compound 238, 4-(benzo[d][1,3]dioxol-5-yl)-4-((dimethylamino)methyl)cyclohexanol]
[7]; [9]
  IC50: 5720 nM
[3]; [8]
  IC50: 1180 nM

## CNCC1(c2ccc3c(c2)OCO3)CCCCC1 [Compound 103, 1-(1-(benzo[d][1,3]dioxol-5-yl)cyclohexyl)-N-methylmethanamine]
[7]; [9]
  IC50: 7740 nM
[3]; [10]
  IC50: 3540 nM

## CCC1(O)CCC(CN(C)C)(c2ccc(Cl)c(Cl)c2)CC1 (stereo not drawn) [Compound 280, 4-(3,4-dichlorophenyl)-4-((dimethylamino)methyl)-1-ethylcyclohexanol]
[7]; [9]
  IC50: 242 nM
[3]; [8]
  IC50: 7 nM

## CCC1(O)CCC(CN)(c2ccc(Cl)c(Cl)c2)CC1 (stereo not drawn) [Compound 278, 4-(aminomethyl)-4-(3,4-dichlorophenyl)-1-ethylcyclohexanol]
[7]; [9]
  IC50: 3190 nM
[3]; [8]
  IC50: 5140 nM

## CN1Cc2c(ccc3c2OCO3)C2(CCC(C)(O)CC2)C1 (single isomer, unassigned) [Compound 295, 4',8-dimethyl-8,9-dihydro-7H-spiro [[1,3]dioxolo[4,5-h]isoquinoline-6,1'-cyclohexan]-4'-ol]
[7]; [9]
  IC50: > 10000 nM
[3]; [8]
  IC50: > 10000 nM

## CC1CCCN1CC1(c2ccc(Cl)c(Cl)c2)CCCCC1 (racemic) [Compound 115, 1-((1-(3,4-dichlorophenyl)cyclohexyl)methyl)-2-methylpyrrolidine]
[7]; [9]
  IC50: < 1 nM
[3]; Human IC50 (nM) hSERT
  IC50: > 10000 nM

## CSc1ccc(C2(CN(C)C)CCCCC2)cc1 [Compound 52, N,N-dimethyl-1-(1-(4-(methylthio)phenyl)cyclohexyl)methanamine]
[7]; Human IC50 (nM) hDAT
  IC50: 176 nM
[3]; [8]
  IC50: 44 nM

## CN(C)CC1(c2ccc3c(c2)OCO3)CCC(C)(O)CC1 (stereo not drawn) [Compound 240, 4-(benzo[d][1,3]dioxol-5-yl)-4-((dimethylamino)methyl)-1-methylcyclohexanol]
[7]; [9]
  IC50: 9030 nM
[3]; [8]
  IC50: 1810 nM
